Results reported in patent publication US20260258032A1, “TYROSINE KINASE 2 INHIBITORS AND USES THEREOF” (BIOGEN MA INC., priority 2022, published 2026).
Counter-ions that a name gives are not always drawn.

Columns and labels:
[1] = target: T1, JH2 domain of human Tyk2 (Homo sapiens, UniProt P29597); experiment: JH2 biochemical assay (TR-FRET probe displacement); type: binding; conditions: JH2 biochemical assay
T1 construct: 10×His-tagged TYK2 JH2 domain (amino acid 575-876)
Outline: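 10×His-tagged human TYK2 JH2 (aa 575-876, 2 nM) incubated 60 min with 2 nM fluorescent probe, 0.1 nM Tb anti-His antibody and compound (10-point 3-fold series from […] top). TR-FRET 520/495 nm ratio, falling with probe displacement, normalized and fitted to a 4-parameter logistic for IC50.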

[2] = test system: Tyk2 kinase activity on STAT4; experiment: pSTAT4 cell assay (MSD, NK92 cells); type: cell-based; conditions: compounds 1 hr, stimulated 15 minutes
Outline: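 Serum-starved NK92 cells, which natively express Tyk2 and STAT4, were pretreated for 1 h with a 10-point 4-fold dilution series from 10 μM. They were then stimulated with 30 ng/mL IL2 for 15 min. Phospho-STAT in lysates was quantified by MSD with anti-STAT4 antibodies, and IC50 was obtained from 4-parameter logistic fits.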

T1 sequence (P29597 575-876): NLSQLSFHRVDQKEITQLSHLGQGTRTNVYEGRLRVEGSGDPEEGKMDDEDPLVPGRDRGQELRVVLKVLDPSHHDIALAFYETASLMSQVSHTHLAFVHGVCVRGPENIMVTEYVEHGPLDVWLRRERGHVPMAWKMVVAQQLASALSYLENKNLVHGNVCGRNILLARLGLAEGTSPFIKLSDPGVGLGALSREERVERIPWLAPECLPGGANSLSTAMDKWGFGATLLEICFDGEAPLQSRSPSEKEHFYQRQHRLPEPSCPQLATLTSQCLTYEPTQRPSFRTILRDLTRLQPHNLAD

SMILES: CC(=O)Nc1cc2c(cn1)C1(CC1)CN2c1cc(NC[C@@H]2CCO2)nc(C(C)(F)F)n1 [Example 163, (S)-N-(1′-(2-(1,1-difluoroethyl)-6-((oxetan-2-ylmethyl)amino)pyrimidin-4-yl)-1′,2′-dihydrospiro[cyclopropane-1,3′-pyrrolo[3,2-c]pyridin]-6′-yl)acetamide]
- IC50 [1]: ≤ 0.01 µM
- IC50 [2]: 0.01 to 0.1 µM

SMILES: CC(=O)Nc1cc2c(cn1)C1(CC1)CN2c1cc(NCCCF)nc(C(C)(F)F)n1 [Example 164, N-(1′-(2-(1,1-difluoroethyl)-6-((3-fluoropropyl)amino)pyrimidin-4-yl)-1′,2′-dihydrospiro[cyclopropane-1,3′-pyrrolo[3,2-c]pyridin]-6′-yl)acetamide trifluoroacetate]
- IC50 [1]: ≤ 0.01 µM
- IC50 [2]: 0.01 to 0.1 µM

SMILES: CO[C@@H](C)[C@H](C)Nc1cc(N2CC3(CC3)c3cnc(NC(C)=O)cc32)nc(C(C)(F)F)n1 [Example 165, N-(1′-(2-(1,1-difluoroethyl)-6-(((2S,3S)-3-methoxybutan-2-yl)amino)pyrimidin-4-yl)-1′,2′-dihydrospiro[cyclopropane-1,3′-pyrrolo[3,2-c]pyridin]-6′-yl)acetamide trifluoroacetate]
- IC50 [1]: ≤ 0.01 µM
- IC50 [2]: 0.01 to 0.1 µM

SMILES: CC(=O)Nc1cc2c(cn1)C1(CC1)CN2c1cc(NC2CSC2)nc(C(C)(F)F)n1 [Example 166, N-(1′-(2-(1,1-difluoroethyl)-6-(thietan-3-ylamino)pyrimidin-4-yl)-1′,2′-dihydrospiro[cyclopropane-1,3′-pyrrolo[3,2-c]pyridin]-6′-yl)acetamide trifluoroacetate]
- IC50 [1]: ≤ 0.01 µM
- IC50 [2]: 0.01 to 0.1 µM

SMILES: CCNc1cc(N2CC3(CC3)c3cnc(NC(C)=O)cc32)nc(C(C)(F)F)n1 [Example 167, N-(1′-(2-(1,1-difluoroethyl)-6-(ethylamino)pyrimidin-4-yl)-1′,2′-dihydrospiro[cyclopropane-1,3′-pyrrolo[3,2-c]pyridin]-6′-yl)acetamide trifluoroacetate]
- IC50 [1]: ≤ 0.01 µM
- IC50 [2]: 0.1 to 1 µM

SMILES: CC(=O)Nc1cc2c(cn1)C1(CC1)CN2c1cc(N[C@H]2C[C@@H](F)C2)nc(C(C)(F)F)n1 [Example 168, N-(1′-(2-(1,1-difluoroethyl)-6-(((1s,3s)-3-fluorocyclobutyl)amino)pyrimidin-4-yl)-1′,2′-dihydrospiro[cyclopropane-1,3′-pyrrolo[3,2-c]pyridin]-6′-yl)acetamide trifluoroacetate]
- IC50 [1]: 0.01 to 0.1 µM
- IC50 [2]: 0.1 to 1 µM

SMILES: CC(=O)Nc1cc2c(cn1)C1(CC1)CN2c1cc(NCC(C)F)nc(C(C)(F)F)n1 (stereo not drawn) [Example 169, N-(1′-(2-(1,1-difluoroethyl)-6-((2-fluoropropyl)amino)pyrimidin-4-yl)-1′,2′-dihydrospiro[cyclopropane-1,3′-pyrrolo[3,2-c]pyridin]-6′-yl)acetamide trifluoroacetate]
- IC50 [1]: ≤ 0.01 µM
- IC50 [2]: 0.01 to 0.1 µM

SMILES: CC(=O)Nc1cc2c(cn1)C1(CC1)CN2c1cc(NCCC(C)F)nc(C(C)(F)F)n1 (stereo not drawn) [Example 170, N-(1′-(2-(1,1-difluoroethyl)-6-((3-fluorobutyl)amino)pyrimidin-4-yl)-1′,2′-dihydrospiro[cyclopropane-1,3′-pyrrolo[3,2-c]pyridin]-6′-yl)acetamide trifluoroacetate]
- IC50 [1]: ≤ 0.01 µM
- IC50 [2]: 0.01 to 0.1 µM

SMILES: COC(C)CNc1cc(N2CC3(CC3)c3cnc(NC(C)=O)cc32)nc(C(C)(F)F)n1 (stereo not drawn) [Example 171, N-(1′-(2-(1,1-difluoroethyl)-6-((2-methoxypropyl)amino)pyrimidin-4-yl)-1′,2′-dihydrospiro[cyclopropane-1,3′-pyrrolo[3,2-c]pyridin]-6′-yl)acetamide trifluoroacetate]
- IC50 [1]: ≤ 0.01 µM
- IC50 [2]: 0.01 to 0.1 µM

SMILES: CO[C@H]1C[C@@H](Nc2cc(N3CC4(CC4)c4cnc(NC(C)=O)cc43)nc(C(C)(F)F)n2)C1 [Example 172, N-(1′-(2-(1,1-difluoroethyl)-6-(((1s,3s)-3-methoxycyclobutyl)amino)pyrimidin-4-yl)-1′,2′-dihydrospiro[cyclopropane-1,3′-pyrrolo[3,2-c]pyridin]-6′-yl)acetamide trifluoroacetate]
- IC50 [1]: ≤ 0.01 µM
- IC50 [2]: 0.01 to 0.1 µM

SMILES: COC1(C)CC1Nc1cc(N2CC3(CC3)c3cnc(NC(C)=O)cc32)nc(C(C)(F)F)n1 (stereo not drawn) [Example 173, N-(1′-(2-(1,1-difluoroethyl)-6-((2-methoxy-2-methylcyclopropyl)amino)pyrimidin-4-yl)-1′,2′-dihydrospiro[cyclopropane-1,3′-pyrrolo[3,2-c]pyridin]-6′-yl)acetamide trifluoroacetate]
- IC50 [1]: ≤ 0.01 µM
- IC50 [2]: 0.01 to 0.1 µM

SMILES: CC(=O)Nc1cc2c(cn1)C1(CC1)CN2c1cc(NCC2CCN2C)nc(C(C)(F)F)n1 (stereo not drawn) [Example 174, N-(1′-(2-(1,1-difluoroethyl)-6-(((1-methylazetidin-2-yl)methyl)amino)pyrimidin-4-yl)-1′,2′-dihydrospiro[cyclopropane-1,3′-pyrrolo[3,2-c]pyridin]-6′-yl)acetamide]
- IC50 [1]: 0.01 to 0.1 µM
- IC50 [2]: ≥ 1 µM

SMILES: CC(=O)Nc1cc2c(cn1)C1(CC1)CN2c1cc(NC(C)C2COC2)nc(C(C)(F)F)n1 (stereo not drawn) [Example 175, N-(1′-(2-(1,1-difluoroethyl)-6-((1-(oxetan-3-yl)ethyl)amino)pyrimidin-4-yl)-1′,2′-dihydrospiro[cyclopropane-1,3′-pyrrolo[3,2-c]pyridin]-6′-yl)acetamide]
- IC50 [1]: ≤ 0.01 µM
- IC50 [2]: 0.1 to 1 µM

SMILES: CC(=O)Nc1cc2c(cn1)C1(CC1)CN2c1cc(NC2CC23CC3)nc(C(C)(F)F)n1 (stereo not drawn) [Example 176, N-(1′-(2-(1,1-difluoroethyl)-6-(spiro[2.2]pentan-1-ylamino)pyrimidin-4-yl)-1′,2′-dihydrospiro[cyclopropane-1,3′-pyrrolo[3,2-c]pyridin]-6′-yl)acetamide trifluoroacetate]
- IC50 [1]: ≤ 0.01 µM
- IC50 [2]: 0.01 to 0.1 µM

SMILES: COC1CC1Nc1cc(N2CC3(CC3)c3cnc(NC(C)=O)cc32)nc(C(C)(F)F)n1 (stereo not drawn) [Example 177, N-(1′-(2-(1,1-difluoroethyl)-6-((2-methoxycyclopropyl)amino)pyrimidin-4-yl)-1′,2′-dihydrospiro[cyclopropane-1,3′-pyrrolo[3,2-c]pyridin]-6′-yl)acetamide]
- IC50 [1]: ≤ 0.01 µM
- IC50 [2]: 0.01 to 0.1 µM

SMILES: COCC(C)Nc1cc(N2CC3(CC3)c3cnc(NC(C)=O)cc32)nc(C(C)(F)F)n1 (stereo not drawn) [Example 178, N-(1′-(2-(1,1-difluoroethyl)-6-((1-methoxypropan-2-yl)amino)pyrimidin-4-yl)-1′,2′-dihydrospiro[cyclopropane-1,3′-pyrrolo[3,2-c]pyridin]-6′-yl)acetamide trifluoroacetate]
- IC50 [1]: ≤ 0.01 µM
- IC50 [2]: 0.01 to 0.1 µM

SMILES: CC(=O)Nc1cc2c(cn1)C1(CC1)CN2c1cc(NC2CCOC2)nc(C(C)(F)F)n1 (stereo not drawn) [Example 179, N-(1′-(2-(1,1-difluoroethyl)-6-((tetrahydrofuran-3-yl)amino)pyrimidin-4-yl)-1′,2′-dihydrospiro[cyclopropane-1,3′-pyrrolo[3,2-c]pyridin]-6′-yl)acetamide trifluoroacetate]
- IC50 [1]: ≤ 0.01 µM
- IC50 [2]: 0.01 to 0.1 µM

SMILES: CC(=O)Nc1cc2c(cn1)C1(CC1)CN2c1cc(NCC(C)N(C)C)nc(C(C)(F)F)n1 (stereo not drawn) [Example 180, N-(1′-(2-(1,1-difluoroethyl)-6-((2-(dimethylamino)propyl)amino)pyrimidin-4-yl)-1′,2′-dihydrospiro[cyclopropane-1,3′-pyrrolo[3,2-c]pyridin]-6′-yl)acetamide trifluoroacetate]
- IC50 [1]: 0.01 to 0.1 µM
- IC50 [2]: 0.1 to 1 µM

SMILES: CC(=O)Nc1cc2c(cn1)C1(CC1)CN2c1cc(NC2CCSC2)nc(C(C)(F)F)n1 (stereo not drawn) [Example 181, N-(1′-(2-(1,1-difluoroethyl)-6-((tetrahydrothiophen-3-yl)amino)pyrimidin-4-yl)-1′,2′-dihydrospiro[cyclopropane-1,3′-pyrrolo[3,2-c]pyridin]-6′-yl)acetamide]
- IC50 [1]: ≤ 0.01 µM
- IC50 [2]: 0.01 to 0.1 µM

SMILES: CC(=O)Nc1cc2c(cn1)C1(CC1)CN2c1cc(NC2CC2C)nc(C(C)(F)F)n1 (stereo not drawn) [Example 182, N-(1′-(2-(1,1-difluoroethyl)-6-((2-methylcyclopropyl)amino)pyrimidin-4-yl)-1′,2′-dihydrospiro[cyclopropane-1,3′-pyrrolo[3,2-c]pyridin]-6′-yl)acetamide trifluoroacetate]
- IC50 [1]: ≤ 0.01 µM
- IC50 [2]: 0.01 to 0.1 µM

SMILES: CC(=O)Nc1cc2c(cn1)C1(CC1)CN2c1cc(C)cc(N2CCN(C)C(C(F)F)C2)n1 (stereo not drawn) [Example 183, N-(1′-(6-(3-(difluoromethyl)-4-methylpiperazin-1-yl)-4-methylpyridin-2-yl)-1′,2′-dihydrospiro[cyclopropane-1,3′-pyrrolo[3,2-c]pyridin]-6′-yl)acetamide]
- IC50 [1]: 0.1 to 1 µM
- IC50 [2]: ≥ 1 µM

SMILES: CC(=O)Nc1cc2c(cn1)C1(CC1)CN2c1cc(C)cc(N2CCC(F)(F)C2)n1 [Example 184, N-(1′-(6-(3,3-difluoropyrrolidin-1-yl)-4-methylpyridin-2-yl)-1′,2′-dihydrospiro[cyclopropane-1,3′-pyrrolo[3,2-c]pyridin]-6′-yl)acetamide]
- IC50 [1]: 0.01 to 0.1 µM
- IC50 [2]: 0.1 to 1 µM

SMILES: COCCOC1CCN(c2cc(C)cc(N3CC4(CC4)c4cnc(NC(C)=O)cc43)n2)C1 (stereo not drawn) [Example 185, N-(1′-(6-(3-(2-methoxyethoxy)pyrrolidin-1-yl)-4-methylpyridin-2-yl)-1′,2′-dihydrospiro[cyclopropane-1,3′-pyrrolo[3,2-c]pyridin]-6′-yl)acetamide]
- IC50 [1]: 0.1 to 1 µM
- IC50 [2]: ≥ 1 µM

SMILES: CC(=O)Nc1cc2c(cn1)C1(CC1)CN2c1cc(C)cc(N2CCC(O)(C(F)(F)F)C2)n1 (stereo not drawn) [Example 186, N-(1′-(6-(3-hydroxy-3-(trifluoromethyl)pyrrolidin-1-yl)-4-methylpyridin-2-yl)-1′,2′-dihydrospiro[cyclopropane-1,3′-pyrrolo[3,2-c]pyridin]-6′-yl)acetamide]
- IC50 [1]: 0.1 to 1 µM
- IC50 [2]: ≥ 1 µM
